These results are taken from PMC8550792, “Evolution of kinase polypharmacology across HSP90 drug discovery” (Cell Chemical Biology, 2021).

Where two headings read alike, the source gives them in different places.

The subject of assay [1] is 382 unique human kinases. As to the kind of experiment: biochemical. In kind it is biochemical. The conditions noted are these: cutoff of >85% inhibition at 10 μM; luminespib and ganetespib large kinome panel, others 16-kinase panel.
For assay [2] the following is noted: known interaction (K) listed by CLARITY, cited from earlier work.
The subject of another assay is TRAP1. Set-up: method as in ChEMBL23 (accessed: 23/08/2018). To be noted: average of reported values; ref ChEMBL23 (accessed: 23/08/2018); cited from earlier work.
The target of the next assay is T1, FGR (Homo sapiens, UniProt P09769).
T1 construct: purchased Reaction Biology (HotSpot contract assay)
Briefly: HotSpot in vitro kinase radiometric assay. It counts as biochemical. The conditions noted are these: 10uM, ATP 50 uM, Data 1, Data 2; for remaining activity at 10 µM: read-out: % Enzyme Activity (relative to DMSO controls), FGR.

Another assay addresses T2, TRKC (Homo sapiens, UniProt Q16288).
T2 construct: purchased Reaction Biology (HotSpot contract assay)
Briefly: HotSpot in vitro kinase radiometric assay. It counts as biochemical. The conditions noted are these: 10uM, ATP 100 uM, Data 1, Data 2; for remaining activity at 10 µM: read-out: % Enzyme Activity (relative to DMSO controls), TRKC.

The target of another assay is T3, PEAK1 (Homo sapiens, UniProt Q9H792).
T3 construct: purchased Reaction Biology (HotSpot contract assay)
As to the kind of experiment: HotSpot in vitro kinase radiometric assay. In kind it is biochemical. The conditions noted are these: 10uM, ATP 30 uM, Data 1, Data 2; for remaining activity at 10 µM: read-out: % Enzyme Activity (relative to DMSO controls), PEAK1.

Another assay concerns the target T4, ABL2/ARG (Homo sapiens, UniProt P42684).
T4 construct: purchased Reaction Biology (HotSpot contract assay)
Briefly: HotSpot in vitro kinase radiometric assay. The conditions noted are these: 10uM, ATP 30 uM, Data 1, Data 2; for remaining activity at 10 µM: read-out: % Enzyme Activity (relative to DMSO controls), ABL2/ARG. In kind it is biochemical.

For the next assay, the system named is HSP90AB1. Set-up: method as in ChEMBL23 (accessed: 23/08/2018). To be noted: average of reported values; ref ChEMBL23 (accessed: 23/08/2018); cited from earlier work.
The target in another assay is T5, PDK4/PDKH4 (Homo sapiens, UniProt Q16654).
T5 construct: purchased Reaction Biology (HotSpot contract assay)
Briefly: HotSpot in vitro kinase radiometric assay. It counts as biochemical. To be noted: 10uM, ATP 30 uM, Data 1, Data 2; for remaining activity at 10 µM: read-out: % Enzyme Activity (relative to DMSO controls), PDK4/PDKH4. The method, then:
(§1) Accordingly, we selected five additional representative HSP90 inhibitors, at least one from each chemical class, including both synthetic inhibitors and natural products. […]
(§2) This radioisotope binding assay was designed to directly detect the true product without the use of modified substrates, coupling enzymes, or detection antibodies thus enabling to directly measure inhibition of catalytic activity. Test or control compounds were incubated with kinase, substrate, cofactors, and radioisotope-labeled ATP (32P-ɣ-ATP or 33P-ɣ-ATP). The reaction mixtures were then spotted onto filter papers, which bind the radioisotope-labeled catalytic product.

For a further assay, the target named is T6, PDK2/PDHK2 (Homo sapiens, UniProt Q15119).
T6 construct: purchased Reaction Biology (HotSpot contract assay)
Briefly: HotSpot in vitro kinase radiometric assay. In kind it is biochemical. To be noted: 10uM, ATP 15 uM, Data 1, Data 2. As to the method:
as §1, §2

A further assay concerns the target T7, c-Src (Homo sapiens, UniProt P12931).
T7 construct: purchased Reaction Biology (HotSpot contract assay)
Briefly: HotSpot in vitro kinase radiometric assay. It counts as biochemical. To be noted: 10uM, ATP 15 uM, Data 1, Data 2; for remaining activity at 10 µM: read-out: % Enzyme Activity (relative to DMSO controls), c-Src. The method, then:
as §1, §2

The next assay addresses T8, LYN B (Homo sapiens, UniProt P07948).
T8 construct: purchased Reaction Biology (HotSpot contract assay)
As to the kind of experiment: HotSpot in vitro kinase radiometric assay. It counts as biochemical. The conditions noted are these: 10uM, ATP 20 uM, Data 1, Data 2; for remaining activity at 10 µM: read-out: % Enzyme Activity (relative to DMSO controls), LYN B. As to the method: as §1, §2

The next assay concerns the target T9, BLK (Homo sapiens, UniProt P51451).
T9 construct: purchased Reaction Biology (HotSpot contract assay)
As to the kind of experiment: HotSpot in vitro kinase radiometric assay. In kind it is biochemical. The conditions noted are these: 10uM, ATP 10 uM, Data 1, Data 2; for remaining activity at 10 µM: read-out: % Enzyme Activity (relative to DMSO controls), BLK. The method, then:
as §1, §2

A further assay deals with T10, YES/YES1 (Homo sapiens, UniProt P07947).
T10 construct: purchased Reaction Biology (HotSpot contract assay)
Briefly: HotSpot in vitro kinase radiometric assay. In kind it is biochemical. To be noted: 10uM, ATP 50 uM, Data 1, Data 2; for remaining activity at 10 µM: read-out: % Enzyme Activity (relative to DMSO controls), YES/YES1.

The next assay deals with 16-kinase panel. Briefly: 16-kinase panel screening, in vitro radiometric assay. It counts as biochemical, human. To be noted: 10 μM.
For the next assay, the target named is T11, LCK (Homo sapiens, UniProt P06239).
T11 construct: purchased Reaction Biology (HotSpot contract assay)
Briefly: HotSpot in vitro kinase radiometric assay. It counts as biochemical. To be noted: 10uM, ATP 15 uM, Data 1, Data 2; for remaining activity at 10 µM: read-out: % Enzyme Activity (relative to DMSO controls), LCK.

For another assay, the target named is T12, PASK (Homo sapiens, UniProt Q96RG2).
T12 construct: purchased Reaction Biology (HotSpot contract assay)
As to the kind of experiment: HotSpot in vitro kinase radiometric assay. In kind it is biochemical. The conditions noted are these: 10uM, ATP 50 uM, Data 1, Data 2; for remaining activity at 10 µM: read-out: % Enzyme Activity (relative to DMSO controls), PASK.
Excerpt: (§3) Accordingly, we selected five additional representative HSP90 inhibitors, at least one from each chemical class, including both synthetic inhibitors and natural products.
(§4) Accordingly, we screened the hit compound and the two leads for kinase off-target inhibition using the 16-kinase panel and the same in vitro catalytic assay used previously.
as §2

In the next assay the target is T13, TRKA (Homo sapiens, UniProt P04629).
T13 construct: purchased Reaction Biology (HotSpot contract assay)
As to the kind of experiment: HotSpot in vitro kinase radiometric assay. To be noted: 10uM, ATP 100 uM, Data 1, Data 2; for remaining activity at 10 µM: read-out: % Enzyme Activity (relative to DMSO controls), TRKA. In kind it is biochemical.
Excerpt: as §3, §4, §2

In the next assay the target is T14, FYN (Homo sapiens, UniProt P06241).
T14 construct: purchased Reaction Biology (HotSpot contract assay)
Briefly: HotSpot in vitro kinase radiometric assay. In kind it is biochemical. To be noted: 10uM, ATP 30 uM, Data 1, Data 2; for remaining activity at 10 µM: read-out: % Enzyme Activity (relative to DMSO controls), FYN.

The target of another assay is DDR1 (Homo sapiens, UniProt Q08345). As to the kind of experiment: HotSpot in vitro kinase radiometric assay. In kind it is biochemical. Details: purchased Reaction Biology (HotSpot contract assay). The conditions noted are these: 10uM, ATP 100 uM, Data 1, Data 2; for remaining activity at 10 µM: read-out: % Enzyme Activity (relative to DMSO controls), DDR1.
Another assay has as its system HSP90AA1. To be noted: average of reported values; ref ChEMBL23 (accessed: 23/08/2018); cited from earlier work.
The next assay deals with ABL1 (Homo sapiens, UniProt P00519). As to the kind of experiment: HotSpot in vitro kinase radiometric assay. In kind it is biochemical. Set-up: purchased Reaction Biology (HotSpot contract assay). The conditions noted are these: 10uM, ATP 40 uM, Data 1, Data 2; for remaining activity at 10 µM: read-out: % Enzyme Activity (relative to DMSO controls), ABL1.
The target in assay [3] is T15, 382 unique human kinases (Homo sapiens, UniProt P37173).
T15 construct: purchased Reaction Biology (HotSpot contract assay)
Briefly: biochemical. It counts as biochemical. To be noted: kinase TGFBR2; read-out: Control Compound IC50*.

Assay [4] has as its target T16, 382 unique human kinases (Homo sapiens, UniProt Q96QT4).
T16 construct: purchased Reaction Biology (HotSpot contract assay)
As to the kind of experiment: biochemical. It counts as biochemical. To be noted: kinase TRPM7/CHAK1; read-out: Control Compound IC50*.

Assay [5] addresses T17, 382 unique human kinases (Homo sapiens, UniProt P27361).
T17 construct: purchased Reaction Biology (HotSpot contract assay)
Briefly: biochemical. In kind it is biochemical. The conditions noted are these: ERK1; read-out: Control Compound IC50*.

For assay [6], the target named is T18, 382 unique human kinases (Homo sapiens, UniProt Q9BYP7).
T18 construct: purchased Reaction Biology (HotSpot contract assay)
As to the kind of experiment: biochemical. The conditions noted are these: WNK3; read-out: Control Compound IC50*. In kind it is biochemical.

T2 sequence (Q16288 32-839): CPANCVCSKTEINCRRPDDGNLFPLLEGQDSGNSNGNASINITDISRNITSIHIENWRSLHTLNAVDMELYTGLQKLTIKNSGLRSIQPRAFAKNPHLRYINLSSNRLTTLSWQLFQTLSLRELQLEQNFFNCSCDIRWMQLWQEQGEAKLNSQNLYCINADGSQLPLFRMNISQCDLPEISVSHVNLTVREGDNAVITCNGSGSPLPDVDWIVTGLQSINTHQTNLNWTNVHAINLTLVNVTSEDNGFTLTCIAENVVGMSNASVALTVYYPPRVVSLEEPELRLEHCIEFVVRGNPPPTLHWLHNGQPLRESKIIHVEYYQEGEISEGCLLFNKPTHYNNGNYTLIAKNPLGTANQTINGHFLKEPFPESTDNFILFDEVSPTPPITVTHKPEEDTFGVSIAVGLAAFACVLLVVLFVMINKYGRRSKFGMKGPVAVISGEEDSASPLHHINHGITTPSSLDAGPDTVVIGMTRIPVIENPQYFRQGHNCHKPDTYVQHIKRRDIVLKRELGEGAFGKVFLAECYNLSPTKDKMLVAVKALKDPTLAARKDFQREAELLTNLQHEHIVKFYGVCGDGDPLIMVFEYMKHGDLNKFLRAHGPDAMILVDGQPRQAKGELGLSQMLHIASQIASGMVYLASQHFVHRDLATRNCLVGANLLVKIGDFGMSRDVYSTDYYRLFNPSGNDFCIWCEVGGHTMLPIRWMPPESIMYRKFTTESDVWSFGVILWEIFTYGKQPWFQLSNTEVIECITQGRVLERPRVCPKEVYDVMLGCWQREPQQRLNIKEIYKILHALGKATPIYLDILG
Chain of ABL1 (P00519 whole entry): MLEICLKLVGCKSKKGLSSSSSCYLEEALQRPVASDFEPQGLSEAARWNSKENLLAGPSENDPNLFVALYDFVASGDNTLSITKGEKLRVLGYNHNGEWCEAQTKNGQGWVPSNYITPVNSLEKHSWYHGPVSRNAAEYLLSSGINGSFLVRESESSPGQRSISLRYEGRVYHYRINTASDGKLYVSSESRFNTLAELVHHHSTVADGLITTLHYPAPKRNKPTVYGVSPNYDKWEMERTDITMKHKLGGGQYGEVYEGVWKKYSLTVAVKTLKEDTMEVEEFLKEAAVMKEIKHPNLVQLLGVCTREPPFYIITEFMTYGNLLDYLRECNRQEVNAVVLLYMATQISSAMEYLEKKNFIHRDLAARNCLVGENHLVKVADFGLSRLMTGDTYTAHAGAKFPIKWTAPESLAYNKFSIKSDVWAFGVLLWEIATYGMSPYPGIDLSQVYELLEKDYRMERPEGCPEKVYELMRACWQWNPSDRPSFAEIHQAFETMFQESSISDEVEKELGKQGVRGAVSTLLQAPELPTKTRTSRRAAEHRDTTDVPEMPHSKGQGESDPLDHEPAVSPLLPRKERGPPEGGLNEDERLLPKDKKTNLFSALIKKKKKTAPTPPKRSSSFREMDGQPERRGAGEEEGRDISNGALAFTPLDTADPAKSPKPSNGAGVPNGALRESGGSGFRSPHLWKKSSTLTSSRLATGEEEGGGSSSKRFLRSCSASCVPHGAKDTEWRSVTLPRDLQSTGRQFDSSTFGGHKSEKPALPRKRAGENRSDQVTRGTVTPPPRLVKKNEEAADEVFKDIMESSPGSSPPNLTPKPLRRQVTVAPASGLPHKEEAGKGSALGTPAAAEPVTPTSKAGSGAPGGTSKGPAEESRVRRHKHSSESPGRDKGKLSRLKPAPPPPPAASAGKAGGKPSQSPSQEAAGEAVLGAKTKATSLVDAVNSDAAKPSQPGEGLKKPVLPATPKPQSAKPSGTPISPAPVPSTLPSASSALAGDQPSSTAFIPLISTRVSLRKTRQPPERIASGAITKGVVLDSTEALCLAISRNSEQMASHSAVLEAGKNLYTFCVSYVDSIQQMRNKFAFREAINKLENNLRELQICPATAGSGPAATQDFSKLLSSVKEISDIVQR
T1 sequence (P09769 whole entry): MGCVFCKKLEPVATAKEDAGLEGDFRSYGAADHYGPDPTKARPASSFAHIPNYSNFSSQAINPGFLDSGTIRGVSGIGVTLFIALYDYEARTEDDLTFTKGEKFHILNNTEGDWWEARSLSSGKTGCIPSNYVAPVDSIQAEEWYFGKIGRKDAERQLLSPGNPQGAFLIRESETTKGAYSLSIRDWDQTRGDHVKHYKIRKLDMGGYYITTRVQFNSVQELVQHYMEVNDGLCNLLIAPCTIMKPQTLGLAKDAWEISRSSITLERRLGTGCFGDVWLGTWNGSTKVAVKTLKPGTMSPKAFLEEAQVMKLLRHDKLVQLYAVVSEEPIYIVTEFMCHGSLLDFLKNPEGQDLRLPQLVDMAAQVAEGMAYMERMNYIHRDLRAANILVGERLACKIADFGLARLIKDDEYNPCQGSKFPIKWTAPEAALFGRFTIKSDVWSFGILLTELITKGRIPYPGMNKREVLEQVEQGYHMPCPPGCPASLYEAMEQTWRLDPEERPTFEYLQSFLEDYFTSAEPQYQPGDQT
T8 sequence (P07948 1-491 isoform P07948-2): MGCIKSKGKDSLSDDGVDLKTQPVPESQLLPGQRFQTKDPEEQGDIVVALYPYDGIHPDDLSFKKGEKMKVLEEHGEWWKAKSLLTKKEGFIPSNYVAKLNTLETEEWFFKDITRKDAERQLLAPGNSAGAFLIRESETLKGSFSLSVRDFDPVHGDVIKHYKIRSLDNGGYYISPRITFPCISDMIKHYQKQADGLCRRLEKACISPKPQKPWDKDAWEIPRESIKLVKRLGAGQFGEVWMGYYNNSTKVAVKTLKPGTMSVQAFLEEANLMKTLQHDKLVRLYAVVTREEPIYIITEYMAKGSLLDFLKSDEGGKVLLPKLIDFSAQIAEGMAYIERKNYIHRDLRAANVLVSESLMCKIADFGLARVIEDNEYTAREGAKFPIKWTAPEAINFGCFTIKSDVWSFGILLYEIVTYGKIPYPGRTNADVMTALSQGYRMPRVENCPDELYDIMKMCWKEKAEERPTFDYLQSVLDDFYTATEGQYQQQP
T13 sequence (P04629 33-796): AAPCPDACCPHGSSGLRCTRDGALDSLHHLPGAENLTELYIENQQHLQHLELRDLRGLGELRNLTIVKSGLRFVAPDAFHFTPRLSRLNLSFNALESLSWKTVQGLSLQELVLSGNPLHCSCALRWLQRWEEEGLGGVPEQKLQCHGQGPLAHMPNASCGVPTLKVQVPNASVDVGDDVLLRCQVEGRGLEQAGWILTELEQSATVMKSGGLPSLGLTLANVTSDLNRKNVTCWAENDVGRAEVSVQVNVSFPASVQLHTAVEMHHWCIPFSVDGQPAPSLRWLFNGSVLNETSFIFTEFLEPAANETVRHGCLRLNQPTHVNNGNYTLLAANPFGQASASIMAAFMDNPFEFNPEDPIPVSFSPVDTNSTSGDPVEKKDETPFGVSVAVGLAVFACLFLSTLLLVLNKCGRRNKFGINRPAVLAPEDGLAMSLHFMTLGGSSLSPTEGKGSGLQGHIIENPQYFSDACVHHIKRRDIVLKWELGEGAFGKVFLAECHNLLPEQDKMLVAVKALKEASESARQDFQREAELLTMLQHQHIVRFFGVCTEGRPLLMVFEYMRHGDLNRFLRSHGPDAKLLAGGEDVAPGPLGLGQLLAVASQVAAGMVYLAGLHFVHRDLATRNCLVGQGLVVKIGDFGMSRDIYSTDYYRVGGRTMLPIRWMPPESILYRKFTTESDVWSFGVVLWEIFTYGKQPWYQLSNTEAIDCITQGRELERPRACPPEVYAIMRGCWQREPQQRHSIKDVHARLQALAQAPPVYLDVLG
T11 sequence (P06239 whole entry): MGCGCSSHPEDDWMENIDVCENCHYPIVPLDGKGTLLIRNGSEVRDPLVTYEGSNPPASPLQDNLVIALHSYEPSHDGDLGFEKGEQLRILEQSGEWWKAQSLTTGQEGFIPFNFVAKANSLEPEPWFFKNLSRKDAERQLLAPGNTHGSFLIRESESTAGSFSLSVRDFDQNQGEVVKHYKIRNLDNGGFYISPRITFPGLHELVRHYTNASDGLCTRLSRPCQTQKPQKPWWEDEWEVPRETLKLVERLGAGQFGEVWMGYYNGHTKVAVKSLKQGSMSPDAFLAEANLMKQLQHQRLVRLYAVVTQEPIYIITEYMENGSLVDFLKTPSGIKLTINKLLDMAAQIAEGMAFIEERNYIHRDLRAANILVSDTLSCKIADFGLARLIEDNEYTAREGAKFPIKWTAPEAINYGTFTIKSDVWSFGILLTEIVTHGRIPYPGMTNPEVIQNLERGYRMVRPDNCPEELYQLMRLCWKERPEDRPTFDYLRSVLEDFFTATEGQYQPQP
T14 sequence (P06241 whole entry): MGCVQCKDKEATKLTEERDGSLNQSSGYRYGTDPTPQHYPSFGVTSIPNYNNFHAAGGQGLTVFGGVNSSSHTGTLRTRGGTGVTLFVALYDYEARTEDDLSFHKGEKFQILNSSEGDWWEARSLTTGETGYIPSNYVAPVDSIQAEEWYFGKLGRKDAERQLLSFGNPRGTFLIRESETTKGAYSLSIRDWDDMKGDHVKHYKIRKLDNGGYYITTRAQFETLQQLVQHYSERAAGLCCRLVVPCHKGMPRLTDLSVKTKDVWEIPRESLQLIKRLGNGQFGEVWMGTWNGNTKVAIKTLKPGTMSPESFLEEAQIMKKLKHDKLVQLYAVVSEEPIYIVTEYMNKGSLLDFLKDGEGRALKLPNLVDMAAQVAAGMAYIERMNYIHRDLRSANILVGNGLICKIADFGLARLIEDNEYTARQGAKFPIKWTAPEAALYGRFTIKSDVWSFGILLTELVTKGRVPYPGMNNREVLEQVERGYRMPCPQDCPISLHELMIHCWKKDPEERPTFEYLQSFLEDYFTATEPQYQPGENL

With `COc1c(C)cnc(Cn2cnc3c(Cl)nc(N)nc32)c1C` [BIIB021], in the assay with 382 unique human kinases [1], the “number of off-target kinases experimentally identified, In vitro binding (KinomeSCAN)” value (“number” for short) was 0. In addition, the “pACT(exp)” value in assay [2] (Endoplasmin (P14625)) is on record as 6.8; in assay [2] (Heat shock protein 75 kDa, mitochondrial (Q12931)) it was 7.1; in [2] (Heat shock protein HSP 90-alpha (P07900)), 8.1; in assay [2] (Heat shock protein HSP 90-beta (P08238)), 7.8.
Turning to `CN(C)c1cc2c(cc1Sc1nc3c(N)nccc3n1CCNCC(C)(C)C)OCO2` [Debio-0932], the “pActivity, TRAP1” value with TRAP1 is 5.8. In addition, the “% Enzyme Activity (relative to DMSO controls)” value at FGR (FGR) is reported as 101.88%; on TRKC (TRKC), 97.21%; at PEAK1 (PEAK1) it was 103.94%; on ABL2/ARG (ABL2/ARG), 106.65%; at PDK4/PDKH4 (PDK4/PDKH4) it was 111.02%; at PDK2/PDHK2 (PDK2/PDHK2), 100.31%. Moreover, the “% Enzyme Activity (relative to DMSO controls)” value at c-Src (c-Src) was 109.48%; at LYN B (LYN B), 101.36%; at BLK (BLK) it was 109.86%; at YES/YES1 (YES/YES1), 102.37%; at LCK (LCK), 109.56%; at PASK (PASK), 102.33%. Also, the “% Enzyme Activity (relative to DMSO controls)” value at TRKA (TRKA) is on record as 103.51%; at FYN (FYN) it was 102.22%; on DDR1 (DDR1), 85.1%; on ABL1 (ABL1), 104.74%. Also, the remaining activity at 10 µM on FGR is 102%; on TRKC it was 93.3%; at PEAK1, 104%; on ABL2/ARG, 107%; at PDK4/PDKH4, 111%; at PDK2/PDHK2 (read-out: % Enzyme Activity (relative to DMSO controls), PDK2/PDHK2), 108%. For the same compound, the remaining activity at 10 µM was 107% at c-Src; 101% on LYN B; 110% at BLK; 96% on YES/YES1; 110% on LCK; 101% at PASK. For the same compound, the remaining activity at 10 µM was 104% on TRKA, 103% at FYN, 94.8% at DDR1 and 111% on ABL1. Further, in the assay on 382 unique human kinases [1], the “number” value is recorded as 0. Moreover, the “pActivity, HSP90AB1” value in the assay with HSP90AB1 is reported as 7.42. Moreover, the “activity against the 16-kinase panel” value in the assay with 16-kinase panel was “inactive”. Also, the “pActivity, HSP90AA1” value in the assay on HSP90AA1 is 7.48.
What is called IC50 is the point on the concentration scale where inhibition reaches its midpoint. Consider `c1ccc2c(-c3cnn4cc(-c5ccc(N6CCNCC6)cc5)cnc34)ccnc2c1` [LDN193189], for which the IC50 at 382 unique human kinases [3] came out at 165 nM.
With `CCCCCCCCCCCCCCCCn1cc[n+](Cc2ccccc2)c1C` [NH125], on 382 unique human kinases [4], the half-maximal inhibitory concentration (IC50) stood at 9950 nM.
In the case of `O=C(Nc1ccc2[nH]nc(-c3ccncc3)c2c1)[C@@H]1CCN(CC(=O)N2CCN(c3ccc(-c4ncccn4)cc3)CC2)C1` [SCH772984], the half-inhibitory concentration (IC50) on 382 unique human kinases [5] came to 9.81 nM.
As to `CC1(C)CC(=O)c2c(C(F)(F)F)nn(-c3ccc(C(N)=O)c(N[C@H]4CC[C@H](O)CC4)c3)c2C1` [SNX-2112], in the assay on TRAP1, the “pActivity, TRAP1” value is 6.12. Besides, the remaining activity at 10 µM on FGR is 111%; at TRKC, 93%; on PEAK1, 105%; at ABL2/ARG, 114%; at PDK4/PDKH4, 94.8%; at c-Src it was 99%. Further, the remaining activity at 10 µM on LYN B stood at 107%; at BLK, 116%; on YES/YES1, 101%; at LCK, 114%; on PASK, 101%; at TRKA, 107%. Also, the figures for the remaining activity at 10 µM at FYN, on DDR1 and on ABL1 were 113%, 93.4% and 109%, respectively. For the same compound, the “number” value in the assay with 382 unique human kinases [1] was determined as 0. Moreover, the “pActivity, HSP90AB1” value with HSP90AB1 was 8.34. Moreover, the “activity against the 16-kinase panel” value in the assay with 16-kinase panel is “inactive”.
As to `O=C1NC(=O)c2c1c(-c1ccccc1Cl)cc1[nH]c3ccc(O)cc3c21` [Wee-1 Inhibitor], the IC50 at 382 unique human kinases [6] stood at 3570 nM.
